Laboratory results taken from PubChem BioAssay (NCI).
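The compound was tested at five concentrations on cells cultured in 96-well plates, with a 48-hour exposure period. TGI is the concentration that stops growth completely.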

Columns and labels:
Assay in all cases: inhibition of tumour cell growth, NCI panel, 48 h
OVCAR-3 ovarian = tested on: OVCAR-3 ovarian
COLO 205 colon = tested on: COLO 205 colon
LOX IMVI melanoma = tested on: LOX IMVI melanoma
HCC-2998 colon = tested on: HCC-2998 colon
SK-MEL-2 melanoma = tested on: SK-MEL-2 melanoma
HT29 colon = tested on: HT29 colon
UACC-62 melanoma = tested on: UACC-62 melanoma
ACHN renal = tested on: ACHN renal
DU-145 prostate = tested on: DU-145 prostate
RPMI-8226 leukemia = tested on: RPMI-8226 leukemia
SW-620 colon = tested on: SW-620 colon
NCI-H23 lung = tested on: NCI-H23 lung
UACC-257 melanoma = tested on: UACC-257 melanoma
U251 CNS = tested on: U251 CNS
KM12 colon = tested on: KM12 colon
HCT-15 colon = tested on: HCT-15 colon
SF-539 CNS = tested on: SF-539 CNS
TK-10 renal = tested on: TK-10 renal
OVCAR-5 ovarian = tested on: OVCAR-5 ovarian
SNB-75 CNS = tested on: SNB-75 CNS
K-562 leukemia = tested on: K-562 leukemia
HOP-62 NSCLC = tested on: HOP-62 NSCLC
UO-31 renal = tested on: UO-31 renal
M14 melanoma = tested on: M14 melanoma
MALME-3M melanoma = tested on: MALME-3M melanoma
MCF7 breast = tested on: MCF7 breast
SF-295 CNS = tested on: SF-295 CNS
SK-MEL-28 melanoma = tested on: SK-MEL-28 melanoma
PC-3 prostate = tested on: PC-3 prostate
MDA-N = tested on: MDA-N
HOP-92 NSCLC = tested on: HOP-92 NSCLC
SK-OV-3 ovarian = tested on: SK-OV-3 ovarian
SK-MEL-5 melanoma = tested on: SK-MEL-5 melanoma
T-47D breast = tested on: T-47D breast
HCT-116 colon = tested on: HCT-116 colon
SR leukemia = tested on: SR leukemia
NCI-H460 lung = tested on: NCI-H460 lung
NCI/ADR-RES ovarian = tested on: NCI/ADR-RES ovarian
SF-268 CNS = tested on: SF-268 CNS
CCRF-CEM leukemia = tested on: CCRF-CEM leukemia
RXF 393 renal = tested on: RXF 393 renal
CAKI-1 renal = tested on: CAKI-1 renal
786-0 renal = tested on: 786-0 renal
EKVX NSCLC = tested on: EKVX NSCLC
A549 NSCLC = tested on: A549 NSCLC
IGROV1 ovarian = tested on: IGROV1 ovarian
A498 renal = tested on: A498 renal
SNB-19 CNS = tested on: SNB-19 CNS
OVCAR-8 ovarian = tested on: OVCAR-8 ovarian
HL-60(TB) leukemia = tested on: HL-60(TB) leukemia
MOLT-4 leukemia = tested on: MOLT-4 leukemia
OVCAR-4 ovarian = tested on: OVCAR-4 ovarian

Compound: COC[C@H]1C(=O)NCC(=O)N2N=CCC[C@H]2C(=O)N(O)[C@H](C)C(=O)O[C@@H](C(C)C)[C@H](NC(=O)[C@@](C)(O)[C@]2(O)CC[C@@H](CC(C)C)[C@H](C)O2)C(=O)N2NCCC[C@@H]2C(=O)N1O
- TGI (OVCAR-3 ovarian): 0.0362 µM
- TGI (COLO 205 colon): 0.0319 µM
- TGI (LOX IMVI melanoma): 0.0316 µM
- TGI (HCC-2998 colon): 0.0279 µM
- TGI (SK-MEL-2 melanoma): 0.0276 µM
- TGI (HT29 colon): 0.0307 µM
- TGI (UACC-62 melanoma): 0.0322 µM
- TGI (ACHN renal): 0.147 µM
- TGI (DU-145 prostate): 0.168 µM
- TGI (RPMI-8226 leukemia): > 100 µM
- TGI (SW-620 colon): 0.03 µM
- TGI (NCI-H23 lung): 0.0312 µM
- TGI (UACC-257 melanoma): 0.0328 µM
- TGI (U251 CNS): 0.03 µM
- TGI (KM12 colon): 0.0276 µM
- TGI (HCT-15 colon): 0.253 µM
- TGI (SF-539 CNS): 0.0297 µM
- TGI (TK-10 renal): 0.0322 µM
- TGI (OVCAR-5 ovarian): 0.0341 µM
- TGI (SNB-75 CNS): < 0.0159 µM
- TGI (K-562 leukemia): > 100 µM
- TGI (HOP-62 NSCLC): 0.0322 µM
- TGI (UO-31 renal): 0.341 µM
- TGI (M14 melanoma): 0.0355 µM
- TGI (MALME-3M melanoma): 0.0307 µM
- TGI (MCF7 breast): 0.0297 µM
- TGI (SF-295 CNS): 0.0311 µM
- TGI (SK-MEL-28 melanoma): 0.0315 µM
- TGI (PC-3 prostate): 0.0318 µM
- TGI (MDA-N): 0.0323 µM
- TGI (HOP-92 NSCLC): 0.0334 µM

Compound: COc1cc(OC)c(OC)cc1/C=C/c1cc[n+](C)c2ccccc12
- TGI (SK-OV-3 ovarian): > 100 µM
- TGI (SK-MEL-5 melanoma): 26.4 µM
- TGI (COLO 205 colon): 19 µM
- TGI (T-47D breast): > 100 µM
- TGI (HCT-116 colon): > 100 µM
- TGI (SR leukemia): > 100 µM
- TGI (HCC-2998 colon): > 100 µM
- TGI (HT29 colon): > 100 µM
- TGI (NCI-H460 lung): > 100 µM
- TGI (NCI/ADR-RES ovarian): > 100 µM
- TGI (ACHN renal): > 100 µM
- TGI (DU-145 prostate): > 100 µM
- TGI (RPMI-8226 leukemia): > 100 µM
- TGI (SW-620 colon): > 100 µM
- TGI (NCI-H23 lung): 97.4 µM
- TGI (UACC-257 melanoma): 50.9 µM
- TGI (SF-268 CNS): > 100 µM
- TGI (U251 CNS): > 100 µM
- TGI (KM12 colon): 75 µM
- TGI (HCT-15 colon): > 100 µM
- TGI (CCRF-CEM leukemia): 80.9 µM
- TGI (RXF 393 renal): > 100 µM
- TGI (CAKI-1 renal): > 100 µM
- TGI (TK-10 renal): > 100 µM
- TGI (OVCAR-5 ovarian): > 100 µM
- TGI (786-0 renal): > 100 µM
- TGI (SNB-75 CNS): > 100 µM
- TGI (K-562 leukemia): 19.4 µM
- TGI (EKVX NSCLC): > 100 µM
- TGI (A549 NSCLC): > 100 µM
- TGI (HOP-62 NSCLC): > 100 µM
- TGI (UO-31 renal): > 100 µM
- TGI (IGROV1 ovarian): > 100 µM
- TGI (M14 melanoma): > 100 µM
- TGI (A498 renal): > 100 µM
- TGI (MALME-3M melanoma): > 100 µM
- TGI (MCF7 breast): > 100 µM
- TGI (SF-295 CNS): > 100 µM
- TGI (SNB-19 CNS): > 100 µM
- TGI (SK-MEL-28 melanoma): > 100 µM
- TGI (OVCAR-8 ovarian): > 100 µM
- TGI (PC-3 prostate): 75.1 µM
- TGI (HL-60(TB) leukemia): 33 µM
- TGI (MOLT-4 leukemia): > 100 µM
- TGI (MDA-N): > 100 µM
- TGI (OVCAR-4 ovarian): > 100 µM
- TGI (HOP-92 NSCLC): 76.2 µM
